Assay results reported in patent US6372297B1, “Wood preservative oxathiazines” (Uniroyal Chemical Company, Inc., priority 1993, dated 2002).
Read-outs that look alike come from different tables or passages of the source.

Legend:
Bacillus cereus mycoides = assay type: cell-based; parameters: scale not given here
Streptomyces albus = experiment: Wood preservative efficacy against bacteria and yeasts, tryptose agar plates; assay type: cell-based; parameters: key: 0 = growth equal to control, 1 = inhibition, 2 = no growth
Experimental: (§1) Compositions were prepared by dissolving the compounds shown in Table 1 in 50% ethanol and further diluting with sterile distilled water. […] After cooling, the medium was inoculated with the bacteria listed below. After sufficient growth of the untreated cultures, the compounds were evaluated using the following rating system: 0=growth equal to control 1=inhibition of growth by the compound 2=no growth under the influence of the compound. In this Table, the higher numbers are the most preferred species. Streptomyces albus (gram pos)

Debaryomyces hansenii = experiment: as above; assay type: cell-based; parameters: key: 0 = growth equal to control, 1 = inhibition, 2 = no growth
Experimental: as §1, with “Debaryomyces hansenii (yeast)” for “Streptomyces albus (gram pos)”

Enterobacter aerogenes = experiment: as above; assay type: cell-based; parameters: key: 0 = growth equal to control, 1 = inhibition, 2 = no growth
Experimental: as §1, with “Enterobacter aerogenes” for “Streptomyces albus”, “neg)” for “pos)”

Flavobacterium sp. = experiment: as above; assay type: cell-based; parameters: key: 0 = growth equal to control, 1 = growth inhibited, 2 = no growth
Experimental: as §1, with “Flavobacterium sp.” for “Streptomyces albus”, “neg)” for “pos)”

Escherichia coli = experiment: as above; assay type: cell-based; parameters: key: 0 = growth equal to control, 1 = growth inhibited, 2 = no growth
Experimental: as §1, with “Escherichia coli” for “Streptomyces albus”

Pseudomonas aeruginosa = experiment: as above; assay type: cell-based; parameters: key: 0 = growth equal to control, 1 = growth inhibited, 2 = no growth; details: 100 ppm in tryptose agar
Experimental: as §1, with “Pseudomonas aeruginosa” for “Streptomyces albus”, “neg)” for “pos)”

Pseudomonas alcaligenes = experiment: as above; assay type: cell-based; parameters: key: 0 = growth equal to control, 1 = inhibition, 2 = no growth; details: 100 ppm in tryptose agar
Experimental: as §1, with “Pseudomonas alcaligenes” for “Streptomyces albus”, “neg)” for “pos)”

Chaetomium globosum = experiment: Wood preservative efficacy against fungi, agar plate colony diameter; assay type: cell-based; details: 10 ppm, Table 6B
Experimental: (§2) Each plate was inoculated with a spore suspension or with a small piece of agar (1 mm) from the margin of an actively growing colony of the test fungus. The fungi employed are listed below. After incubation at 22° C. and 70% relative humidity during a period long enough to allow significant growth of untreated controls, the diameters of the fungus colonies were measured and scored using the following rating system: 0=free of fungal growth 1=25% of fungal growth compared to untreated 2=50% of fungal growth compared to untreated 3=75% of fungal growth compared to untreated 4=Growth equal to that of untreated The scores measured for wood preservation efficacy of the compounds of this invention are listed in Tables 6a and 6b. In these Tables, the lower numbers are the most preferred species. Chaetomium globosum

Coniophora puteana = experiment: as above; assay type: cell-based; parameters: key: 0 = no fungal growth, 1-3 = 25/50/75% of untreated, 4 = equal; details: 10 ppm, Table 6B
Experimental: as §2, with “Coniophora puteana (syn. C. cerebella)” for “Chaetomium globosum”

Aspergillus flavus = experiment: as above; assay type: cell-based; details: 10 ppm, Table 6B
Experimental: as §2, with “Aspergillus flavus” for “Chaetomium globosum”

Coriolus versicolor = experiment: as above; assay type: cell-based; details: 10 ppm, Table 6B
Experimental: as §2, with “Coriolus versicolor” for “Chaetomium globosum”

Mucor sp. = experiment: as above; assay type: cell-based; details: 100 ppm, Table 6B
Experimental: as §2, with “Mucor sp.” for “Chaetomium globosum”

[1] = tested on: blue-stain fungi and molds; experiment: Activity against blue-stain fungi and molds in a stick test (threshold concentrations); details: beech sticks, 22° C., 90% relative humidity
Experimental: Representative compounds of this invention were dissolved in 50% ethanol. Each compound was then diluted serially using 50% ethanol. […] After three (3) hours, the solutions containing the test compounds were poured off and the treated sticks were allowed to dry in a sterile laminar air flow. Each treated stick was then placed in a Petri dish which had been previously seeded with inoculum. Two drops of a test fungal or spore suspension were pipetted onto the upper surface of each treated stick. The Petri dishes containing the treated sticks were incubated at 22° C. and 90% relative humidity. The treated sticks were evaluated after there was sufficient growth of fungus on control sticks (i.e., untreated sticks) incubated in the same manner. The following score system was used: 0: Stick free of fungal/mold growth 1: Traces of fungal growth on the stick 2: Slight growth (5 to 25% of the surface covered with fungal growth) 3: Moderate growth (25 to 50% covered with fungal growth) 4. Vigorous to maximum fungal growth (more than 50% growth) […]

| Compound | Score of bactericidal activity, B. cereus mycoides (Bacillus cereus mycoides; 10 ppm in tryptose agar) | Score of bactericidal activity, B. cereus mycoides (Bacillus cereus mycoides; 100 ppm in tryptose agar) | Score of bactericidal activity, S. albus (Streptomyces albus; 100 ppm in tryptose agar) | Score of bactericidal activity, D. hansenii (Debaryomyces hansenii; 10 ppm in tryptose agar) | Score of bactericidal activity, D. hansenii (Debaryomyces hansenii; 100 ppm in tryptose agar) | Score of bactericidal activity, E. aerogenes (Enterobacter aerogenes; 100 ppm in tryptose agar) | Score of bactericidal activity, Flavobacter (Flavobacterium sp.; 100 ppm in tryptose agar) | Score of bactericidal activity, E. Coli (Escherichia coli; 100 ppm in tryptose agar) | Score of bactericidal activity, P. aeruginosa (Pseudomonas aeruginosa) | Score of bactericidal activity, P. alcalgenes (Pseudomonas alcaligenes) | melting point [°C] | also measured |
| --- | --- | --- | --- | --- | --- | --- | --- | --- | --- | --- | --- | --- |
| C[S+]1CCON=C1c1ccc(Cl)cc1Cl (stereo not shown) [Compound 2] | 0 | 2 | 0 | 2 | 2 | 0 | 2 | 0 | 0 | 0 |  |  |
| C[S+]1CCON=C1c1ccccc1 (stereo not shown) [Compound 17] | 0 | 0 | 0 |  |  | 0 | 0 | 0 | 0 | 0 |  | Score of bactericidal activity, S. albus (Streptomyces albus; 10 ppm in tryptose agar): 0; Score of fungicidal activity, C. GLOBOSUM (Chaetomium globosum): 4; Score of bactericidal activity, E. aerogenes (Enterobacter aerogenes; 10 ppm in tryptose agar): 0; Score of fungicidal activity, C. PUTEANA (Coniophora puteana): 4; Score of bactericidal activity, Flavobacter (Flavobacterium sp.; 10 ppm in tryptose agar): 0; Score of bactericidal activity, E. Coli (Escherichia coli; 10 ppm in tryptose agar): 0; Score of fungicidal activity, A. FLAVUS (Aspergillus flavus): 4; Score of fungicidal activity, G. VERSICLOR (Coriolus versicolor): 4; Score of fungicidal activity, MUCOR SP (Mucor sp.): 4 |
| CC1C[S+]([O-])C(c2cccs2)=NO1 (stereo not shown) [Compound 50, 5,6-dihydro-6-methyl-3-(2-thienyl)-1,4,2-oxathiazine-4-oxide] |  |  |  |  |  |  |  |  |  |  | 114 to 115 | Threshold concentration (ppm), A. niger, score 0 ([1]; A. niger, minimum concentration to obtain score 0): 1000 ppm; Threshold concentration (ppm), A. niger, score 1-2 ([1]; A. niger, minimum concentration to obtain score 1-2): 250-500 ppm; Threshold concentration (ppm), Aureobasidium, score 0 ([1]; Aureobasidium, minimum concentration to obtain score 0): >1000 ppm; Threshold concentration (ppm), Aureobasidium, score 1-2 ([1]; Aureobasidium, minimum concentration to obtain score 1-2): 100-500 ppm; Threshold concentration (ppm), Sclerophoma, score 0 ([1]; Sclerophoma, minimum concentration to obtain score 0): 100 ppm; Threshold concentration (ppm), Sclerophoma, score 1-2 ([1]; Sclerophoma, minimum concentration to obtain score 1-2): 50-100 ppm; Threshold concentration (ppm), Trichoderma, score 0 ([1]; Trichoderma, minimum concentration to obtain score 0): 5000 ppm; Threshold concentration (ppm), Trichoderma, score 1-2 ([1]; Trichoderma, minimum concentration to obtain score 1-2): 1000-2500 ppm |
| CC1CSC(c2cccs2)=NO1 (stereo not shown) [Compound 52, 5,6-dihydro-6-methyl-3-(2-thienyl)-1,4,2-oxathiazine] |  |  |  |  |  |  |  |  |  |  | 70 to 72 |  |
| Clc1ccc(C2=NOCCS2)s1 [Compound 59, 3-(5-chloro-2-thienyl)-5,6-dihydro-1,4,2-oxathiazine] |  |  |  |  |  |  |  |  |  |  | 74 to 77 |  |
| C[S+]1CCON=C1c1c(Cl)cccc1Cl (stereo not shown) [Compound 15] | 0 | 1 | 0 | 0 | 1 | 0 | 0 | 0 | 0 | 0 |  |  |
| C[S+]1CCON=C1c1cccc(C(F)(F)F)c1 (stereo not shown) [Compound 13] | 2 | 2 | 2 | 2 | 2 | 0 | 2 | 2 | 0 | 0 |  |  |
